{
  "source": "patent US9730938B2",
  "about": "“Bruton's tyrosine kinase inhibitor combinations and uses thereof” (Pharmacyclics LLC, priority 2014, dated 2017)",
  "key": {"OCI-LY-3": {"tested_on": "OCI-LY-3", "experiment": "Combined drug treatment cell viability, CellTiter-Glo assay (Example 2)", "type": "cell-based", "details": "3 days"}, "HBL-1": {"tested_on": "HBL-1", "experiment": "Combined drug treatment cell viability, CellTiter-Glo assay (Example 2)", "type": "cell-based", "details": "3 days"}, "TMD8": {"tested_on": "TMD8", "experiment": "Combined drug treatment cell viability, CellTiter-Glo assay (Example 2)", "type": "cell-based", "details": "3 days"}, "OCI-LY-10": {"tested_on": "OCI-LY-10", "experiment": "Combined drug treatment cell viability, CellTiter-Glo assay (Example 2)", "type": "cell-based", "details": "3 days"}, "SU-DHL-2": {"tested_on": "SU-DHL-2", "experiment": "Combined drug treatment cell viability, CellTiter-Glo assay (Example 2)", "type": "cell-based", "details": "3 days"}, "U2932": {"tested_on": "U2932", "experiment": "Combined drug treatment cell viability, CellTiter-Glo assay (Example 2)", "type": "cell-based", "details": "3 days"}, "ABC-DLBCL cells": {"tested_on": "ABC-DLBCL cells", "details": "Ferch et al. 2009; Hailfinger et al. 2009; cited from earlier work"}, "[1]": {"details": "ibrutinib 0 nM, JAK3 10 μM / MCL-1 3 μM alone"}, "[2]": {"details": "ibrutinib 0.0512 nM, JAK3 10 μM / MCL-1 3 μM / medium alone"}, "[3]": {"details": "ibrutinib 0.256 nM, JAK3 10 μM / MCL-1 3 μM / medium alone"}, "[4]": {"details": "ibrutinib 1.28 nM, JAK3 10 μM / MCL-1 3 μM / medium alone"}, "[5]": {"details": "ibrutinib 6.4 nM, JAK3 10 μM / MCL-1 3 μM / medium alone"}, "[6]": {"details": "ibrutinib 32 nM, JAK3 10 μM / MCL-1 3 μM / medium alone"}, "[7]": {"details": "ibrutinib 160 nM, JAK3 10 μM / MCL-1 3 μM / medium alone"}, "[8]": {"details": "ibrutinib 800 nM, JAK3 10 μM / MCL-1 3 μM / medium alone"}, "[9]": {"details": "ibrutinib 20000 nM, JAK3 10 μM / MCL-1 3 μM / medium alone"}, "[10]": {"details": "ibrutinib 40000 nM, JAK3 10 μM / MCL-1 3 μM / medium alone"}},
  "data": [
    {"molecule": "C[C@@H]1CCN(C(=O)CC#N)C[C@@H]1N(C)c1ncnc2[nH]ccc12", "note": "[tofacitinib]", "values": [
      {"measurement": "luminescence (CellTiter-Glo)", "setting": "OCI-LY-3; [1]", "value": 60068.93},
      {"measurement": "luminescence (CellTiter-Glo)", "setting": "OCI-LY-3; [2]", "value": 52005.22},
      {"measurement": "luminescence (CellTiter-Glo)", "setting": "OCI-LY-3; [3]", "value": 56590.84},
      {"measurement": "luminescence (CellTiter-Glo)", "setting": "OCI-LY-3; [4]", "value": 49371.84},
      {"measurement": "luminescence (CellTiter-Glo)", "setting": "OCI-LY-3; [5]", "value": 52737.31},
      {"measurement": "luminescence (CellTiter-Glo)", "setting": "OCI-LY-3; [6]", "value": 47894.25},
      {"measurement": "luminescence (CellTiter-Glo)", "setting": "OCI-LY-3; [7]", "value": 42659.67},
      {"measurement": "luminescence (CellTiter-Glo)", "setting": "OCI-LY-3; [8]", "value": 54193.44},
      {"measurement": "luminescence (CellTiter-Glo)", "setting": "OCI-LY-3; [9]", "value": 59782.00},
      {"measurement": "luminescence (CellTiter-Glo)", "setting": "OCI-LY-3; [10]", "value": 45217.97},
      {"measurement": "luminescence (CellTiter-Glo)", "setting": "HBL-1; [1]", "value": 78088.40},
      {"measurement": "luminescence (CellTiter-Glo)", "setting": "HBL-1; [2]", "value": 48007.16},
      {"measurement": "luminescence (CellTiter-Glo)", "setting": "HBL-1; [3]", "value": 49532.94},
      {"measurement": "luminescence (CellTiter-Glo)", "setting": "HBL-1; [4]", "value": 56756.95},
      {"measurement": "luminescence (CellTiter-Glo)", "setting": "HBL-1; [5]", "value": 46403.61},
      {"measurement": "luminescence (CellTiter-Glo)", "setting": "HBL-1; [6]", "value": 47226.84},
      {"measurement": "luminescence (CellTiter-Glo)", "setting": "HBL-1; [7]", "value": 41745.82},
      {"measurement": "luminescence (CellTiter-Glo)", "setting": "HBL-1; [8]", "value": 37551.94},
      {"measurement": "luminescence (CellTiter-Glo)", "setting": "HBL-1; [9]", "value": 17614.87},
      {"measurement": "luminescence (CellTiter-Glo)", "setting": "HBL-1; [10]", "value": 39380.73},
      {"measurement": "luminescence (CellTiter-Glo)", "setting": "TMD8; [1]", "value": 42085.03},
      {"measurement": "luminescence (CellTiter-Glo)", "setting": "TMD8; [2]", "value": 22758.56},
      {"measurement": "luminescence (CellTiter-Glo)", "setting": "TMD8; [3]", "value": 22844.02},
      {"measurement": "luminescence (CellTiter-Glo)", "setting": "TMD8; [4]", "value": 23722.74},
      {"measurement": "luminescence (CellTiter-Glo)", "setting": "TMD8; [5]", "value": 22806.63},
      {"measurement": "luminescence (CellTiter-Glo)", "setting": "TMD8; [6]", "value": 23770.82},
      {"measurement": "luminescence (CellTiter-Glo)", "setting": "TMD8; [7]", "value": 23674.67},
      {"measurement": "luminescence (CellTiter-Glo)", "setting": "TMD8; [8]", "value": 21620.76},
      {"measurement": "luminescence (CellTiter-Glo)", "setting": "TMD8; [9]", "value": 6463.53},
      {"measurement": "luminescence (CellTiter-Glo)", "setting": "TMD8; [10]", "value": 19962.15},
      {"measurement": "luminescence (CellTiter-Glo)", "setting": "OCI-LY-10; [1]", "value": 55820.26},
      {"measurement": "luminescence (CellTiter-Glo)", "setting": "OCI-LY-10; [2]", "value": 51855.78},
      {"measurement": "luminescence (CellTiter-Glo)", "setting": "OCI-LY-10; [3]", "value": 42984.83},
      {"measurement": "luminescence (CellTiter-Glo)", "setting": "OCI-LY-10; [4]", "value": 35330.40},
      {"measurement": "luminescence (CellTiter-Glo)", "setting": "OCI-LY-10; [5]", "value": 19547.86},
      {"measurement": "luminescence (CellTiter-Glo)", "setting": "OCI-LY-10; [6]", "value": 13432.93},
      {"measurement": "luminescence (CellTiter-Glo)", "setting": "OCI-LY-10; [7]", "value": 13583.65},
      {"measurement": "luminescence (CellTiter-Glo)", "setting": "OCI-LY-10; [8]", "value": 14159.61},
      {"measurement": "luminescence (CellTiter-Glo)", "setting": "OCI-LY-10; [9]", "value": 14383.00},
      {"measurement": "luminescence (CellTiter-Glo)", "setting": "OCI-LY-10; [10]", "value": 14751.73},
      {"measurement": "luminescence (CellTiter-Glo)", "setting": "SU-DHL-2; [1]", "value": 133588.4},
      {"measurement": "luminescence (CellTiter-Glo)", "setting": "SU-DHL-2; [2]", "value": 154568.4},
      {"measurement": "luminescence (CellTiter-Glo)", "setting": "SU-DHL-2; [3]", "value": 167037.0},
      {"measurement": "luminescence (CellTiter-Glo)", "setting": "SU-DHL-2; [4]", "value": 171896.5},
      {"measurement": "luminescence (CellTiter-Glo)", "setting": "SU-DHL-2; [5]", "value": 165146.8},
      {"measurement": "luminescence (CellTiter-Glo)", "setting": "SU-DHL-2; [6]", "value": 173773.3},
      {"measurement": "luminescence (CellTiter-Glo)", "setting": "SU-DHL-2; [7]", "value": 165414.5},
      {"measurement": "luminescence (CellTiter-Glo)", "setting": "SU-DHL-2; [8]", "value": 167444.0},
      {"measurement": "luminescence (CellTiter-Glo)", "setting": "SU-DHL-2; [9]", "value": 2706.8},
      {"measurement": "luminescence (CellTiter-Glo)", "setting": "SU-DHL-2; [10]", "value": 164389.1},
      {"measurement": "luminescence (CellTiter-Glo)", "setting": "U2932; [1]", "value": 74370.91},
      {"measurement": "luminescence (CellTiter-Glo)", "setting": "U2932; [2]", "value": 61632.23},
      {"measurement": "luminescence (CellTiter-Glo)", "setting": "U2932; [3]", "value": 61314.09},
      {"measurement": "luminescence (CellTiter-Glo)", "setting": "U2932; [4]", "value": 61987.79},
      {"measurement": "luminescence (CellTiter-Glo)", "setting": "U2932; [5]", "value": 58424.16},
      {"measurement": "luminescence (CellTiter-Glo)", "setting": "U2932; [6]", "value": 57921.57},
      {"measurement": "luminescence (CellTiter-Glo)", "setting": "U2932; [7]", "value": 55595.72},
      {"measurement": "luminescence (CellTiter-Glo)", "setting": "U2932; [8]", "value": 54213.58},
      {"measurement": "luminescence (CellTiter-Glo)", "setting": "U2932; [9]", "value": 24327.81},
      {"measurement": "luminescence (CellTiter-Glo)", "setting": "U2932; [10]", "value": 54924.70}
    ]},
    {"molecule": "Z-VRPR-FMK", "values": [
      {"measurement": "effect on ABC-DLBCL cells", "setting": "ABC-DLBCL cells", "value": "exerts toxic effects"}
    ]}
  ]
}
